Experimental data: US20110318277A1, “TACROLIMUS COMPOSITIONS FOR AEROSOL ADMINISTRATION” (APT Pharmaceuticals, Inc. University of Maryland, Baltimore, priority 2010, published 2011)

Experiments:
[1] = Aerosol exposure study of tacrolimus in rats, blood and lung pharmacokinetics; format: in vivo, male Sprague-dawley rats; conditions: rat
[2] = Particle size of jet-nebulized tacrolimus aerosol; format: physicochemical; conditions: jet-nebulizer
[3] = Chemical stability of tacrolimus in ethanol as a function of temperature; format: physicochemical; conditions: 200 mg/ml in ethanol, around day 30
Method: The degradant levels contained in solutions of tacrolimus dissolved in ethanol at a fixed concentration of 200 mg/ml were determined over time as a function of temperature. Samples were stored at the following temperatures: 35° C., 45° C., and 55° C.

calcineurin = conditions: as a calcineurin inhibitor; Kino et al. 1987; cited from earlier work
[4] = Chemical stability of tacrolimus in ethanol as a function of concentration (HPLC); format: physicochemical; conditions: 55 °C, 26 days
Method: The chemical stability of tacrolimus in ethanol at different concentrations ranging from 100 to 400 mg/ml when stored at 55° C. was investigated.
Samples were analyzed using reverse phase HPLC with an acetonitrile-water gradient and UV detection. Samples were prepared in a non-aqueous medium, i.e., acetonitrile, to limit the interconversion of tautomers and to promote stability. Column temperature was set at 60° C. to further promote equilibrium between the cis-trans isomers. The gradient was set at 5% acetronitrile with a run time of 20 minutes. Acetic acid (0.002%) was added to mobile phase A (water). A solution of tacrolimus in 1:1 acetonitrile-water was incubated at 55° C. for 45 minutes to obtain an equilibrium mixture of the 3 tautomers so that retention times of each tautomer could be obtained.

[5] = Aerosol exposure study of tacrolimus in rats, blood and lung pharmacokinetics; format: in vivo, male Sprague-dawley rats; conditions: rat; for AUClast / Tmax: lung; for Cmax: 30 min aerosol exposure
Method: A total of 54 male Sprague-dawley rats of approximately 250 g body weight were exposed to aerosols of tacrolimus (in a propylene-glycol:ethanol mixture) generated by jet-nebulizer for 30 minutes. […] Estimated deposited doses for the 30 minute exposure (assuming 10% deposition efficiency) were 0.072 and 0.256 mg/kg for the “low” and “high” dose groups. Lung and blood samples were obtained for groups of animals (n=3/time point).

[6] = Solubility of tacrolimus in ethanol and hydrofluoroalkanes; format: physicochemical
[7] = male, Sprague-Dawley, 0.4 mg/kg, blood, IV Bolus 0.400 mg/kg
[8] = male, Sprague-Dawley, 0.4 mg/kg, lung, IV Bolus 0.400 mg/kg
[9] = male, Sprague-Dawley, inhaled or intranasal, blood, High Inhalation 0.256 mg/kg
[10] = male, Sprague-Dawley, inhaled or intranasal, blood, Low Inhalation 0.072 mg/kg

AUClast ([1]; lung, IV Bolus 0.400 mg/kg): 334095 ng·h/g
AUC(0-t) [1, 7]: 179 ng·h/mL
Cmax [1, 7]: 78.2 ng/mL
Tmax [1, 7]: 4.98 min
half-life [1, 7]: 114 min
Cmax [1, 8]: 19100 ng/g
Tmax [1, 8]: 4.98 min
half-life [1, 8]: 1470 min
Tmax [1, 9]: 4.98 min
half-life [1, 9]: 104 min
Tmax [1, 10]: 4.98 min
Cmax ([1]; male, Sprague-Dawley, inhaled or intranasal, lung, High Inhalation 0.256 mg/kg, 30 min aerosol exposure): 18100 ng/g
half-life ([1]; male, Sprague-Dawley, inhaled or intranasal, lung, High Inhalation 0.256 mg/kg): 1400 min
Cmax ([1]; male, Sprague-Dawley, inhaled or intranasal, lung, Low Inhalation 0.072 mg/kg, 30 min aerosol exposure): 9960 ng/g
half-life ([1]; male, Sprague-Dawley, inhaled or intranasal, lung, Low Inhalation 0.072 mg/kg): 548 min
MMAD (GSD) ([2]; 50 mg/ml solution in propylene-glycol:ethanol mixture): 2.53 (1.71) μm
MMAD (GSD) ([2]; 150 mg/ml solution in propylene-glycol:ethanol mixture): 2.56 (1.73) μm
impurity level ([3]; stored at 35 °C): about 3%
impurity level ([3]; stored at 55 °C): about 11%
degradation of tacrolimus ([4]; 100 mg/ml in ethanol): approximately 7%
degradation of tacrolimus ([4]; 400 mg/ml in ethanol): less than 1%
AUClast ([5]; High Inhalation 0.256 mg/kg): 22750 ng·h/g
AUClast ([5]; Low Inhalation 0.072 mg/kg): 19722 ng·h/g
Cmax [5, 9]: 149 ng/mL
AUC(0-t) [5, 9]: 194 ng·h/mL
Cmax [5, 10]: 40 ng/mL
AUC(0-t) [5, 10]: 121 ng·h/mL
half-life [5, 10]: 179 min
Tmax ([5]; male, Sprague-Dawley, inhaled or intranasal, High Inhalation 0.256 mg/kg): 4.98 min
Tmax ([5]; male, Sprague-Dawley, inhaled or intranasal, Low Inhalation 0.072 mg/kg): 4.98 min
solubility in ethanol ([6]; ethanol): readily soluble
solubility in hydrofluoroalkanes ([6]; hydrofluoroalkanes): essentially insoluble
Structure (SMILES): C=CC[C@@H]1/C=C(\C)C[C@H](C)C[C@H](OC)[C@H]2O[C@@](O)(C(=O)C(=O)N3CCCC[C@H]3C(=O)O[C@H](/C(C)=C/[C@@H]3CC[C@@H](O)[C@H](OC)C3)[C@H](C)[C@@H](O)CC1=O)[C@H](C)C[C@@H]2OC [tacrolimus, 17-allyl-1,14-dihydroxy-12-[2-(4-hydroxy-3-methoxycyclohexyl)-1-methylvinyl]-23,25-dimethyoxy-13,19,21,27-tetramethyl-11,28-dioxa-4-azatricyclo-[22.3.1.0^4,9]octacos-18-ene-2,3,10,16-tetraone]
potency relative to cyclosporine (calcineurin): up to one hundred times more potent
